From PMC9944867, “Mechanistic in vitro studies indicate that the clinical drug–drug interactions between protease inhibitors and rosuvastatin are driven by inhibition of intestinal BCRP and hepatic OATP1B1 with minimal contribution from OATP1B3, NTCP and OAT3” (Pharmacology Research & Perspectives, 2023)
“And” between values parts separate entries of the source, which are not always exact repeats. Equal values may be shown once. “Also recorded” adds a separate entry of the source. Where a name gives a salt, the structure may show the parent alone. Read-outs that look alike come from different tables or passages of the source. Marks after values point to notes of the source that are not given here.

Legend:
[1] = cited from earlier work
OAT3 [2] = biological target: T1, OAT3 (Homo sapiens, UniProt Q8TCC7); assay: OAT3 single concentration inhibition screen in HEK293 cells; assay type: cell-based; conditions: human, HEK293 cells expressing OAT3 (with vector control cells), pH 7.4, probe [3H]-estrone 3-sulfate (1 μM); probenecid 300 μM; single concentration screens; read-out: Inhibition of OAT3 by positive control (mean), screen
T1 construct: host or cells: HEK293 TransportoCells
T1 sequence (Q8TCC7 1-542): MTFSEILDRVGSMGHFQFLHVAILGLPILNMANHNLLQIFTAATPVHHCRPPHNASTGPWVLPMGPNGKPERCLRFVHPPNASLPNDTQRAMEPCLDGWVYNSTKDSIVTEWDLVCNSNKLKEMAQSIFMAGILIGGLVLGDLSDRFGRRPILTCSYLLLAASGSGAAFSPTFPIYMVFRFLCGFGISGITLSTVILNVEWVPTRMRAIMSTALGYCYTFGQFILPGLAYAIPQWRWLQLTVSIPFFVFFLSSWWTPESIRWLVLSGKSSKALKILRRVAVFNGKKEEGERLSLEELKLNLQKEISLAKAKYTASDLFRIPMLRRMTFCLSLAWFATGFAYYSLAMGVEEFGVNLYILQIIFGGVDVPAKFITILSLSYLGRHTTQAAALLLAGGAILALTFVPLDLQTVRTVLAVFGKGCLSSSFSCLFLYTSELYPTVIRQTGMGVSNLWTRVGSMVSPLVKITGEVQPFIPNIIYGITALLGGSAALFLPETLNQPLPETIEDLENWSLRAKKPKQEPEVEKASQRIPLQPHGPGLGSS

OATP1B1 = biological target: T2, OATP1B1 (Homo sapiens, UniProt Q9Y6L6); assay: OATP1B1 inhibition in transporter-expressing HEK293 cells, [3H]-estradiol 17β-D-glucuronide uptake (IC50 determination); conditions: human, HEK293 cells expressing OATP1B1 (with vector control cells), pH 7.4, probe [3H]-estradiol 17β-D-glucuronide (0.02 μM)
T2 sequence (Q9Y6L6 1-691): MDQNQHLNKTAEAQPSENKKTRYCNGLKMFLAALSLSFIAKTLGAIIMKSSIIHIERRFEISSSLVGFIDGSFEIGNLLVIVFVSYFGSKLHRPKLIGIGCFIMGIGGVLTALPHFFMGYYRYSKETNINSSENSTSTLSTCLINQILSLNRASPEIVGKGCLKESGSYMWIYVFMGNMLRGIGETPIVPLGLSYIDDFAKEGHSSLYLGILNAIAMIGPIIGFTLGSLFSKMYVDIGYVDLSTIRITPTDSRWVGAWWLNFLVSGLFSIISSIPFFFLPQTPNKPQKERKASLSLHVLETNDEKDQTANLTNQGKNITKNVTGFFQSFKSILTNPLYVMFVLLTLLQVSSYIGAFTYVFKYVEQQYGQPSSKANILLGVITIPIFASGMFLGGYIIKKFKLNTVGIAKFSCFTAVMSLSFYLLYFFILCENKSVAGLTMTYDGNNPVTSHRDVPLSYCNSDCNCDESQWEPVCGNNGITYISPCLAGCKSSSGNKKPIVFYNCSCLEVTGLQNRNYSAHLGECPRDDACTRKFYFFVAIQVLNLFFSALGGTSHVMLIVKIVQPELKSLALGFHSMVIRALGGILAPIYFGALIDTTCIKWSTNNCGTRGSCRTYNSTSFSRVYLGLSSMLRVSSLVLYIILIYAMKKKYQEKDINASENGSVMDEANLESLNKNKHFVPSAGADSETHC
Procedure: (§1) OATP1B1, OATP1B3, NTCP and vector control cell lines were cultured and subsequent transporter assays conducted as described above using the same transporter‐specific probe substrates and incubation times. For OATP1B1, the probe substrate was [^3H]‐estradiol 17β‐D‐glucuronide (0.02 μM) incubated for 2 min, with rifamycin SV (100 μM) as positive control inhibitor. For IC50 determinations, the only difference to the method performed above was that the 15‐min pre‐incubation step contained a range of six concentrations of protease inhibitor drug, and subsequent incubations were conducted with the same six concentration levels of drug rather than with a single concentration.

BCRP [3] = tested on: BCRP; parameters: method as in PMID 21612343; conditions: ref [17]; cited from earlier work
BCRP [4] = biological target: T3, BCRP (Homo sapiens, UniProt Q9UNQ0); assay: Caco-2 unidirectional (B-A) BCRP inhibition assay, [3H]-estrone 3-sulfate transport (IC50 determination)
T3 sequence (Q9UNQ0 1-655): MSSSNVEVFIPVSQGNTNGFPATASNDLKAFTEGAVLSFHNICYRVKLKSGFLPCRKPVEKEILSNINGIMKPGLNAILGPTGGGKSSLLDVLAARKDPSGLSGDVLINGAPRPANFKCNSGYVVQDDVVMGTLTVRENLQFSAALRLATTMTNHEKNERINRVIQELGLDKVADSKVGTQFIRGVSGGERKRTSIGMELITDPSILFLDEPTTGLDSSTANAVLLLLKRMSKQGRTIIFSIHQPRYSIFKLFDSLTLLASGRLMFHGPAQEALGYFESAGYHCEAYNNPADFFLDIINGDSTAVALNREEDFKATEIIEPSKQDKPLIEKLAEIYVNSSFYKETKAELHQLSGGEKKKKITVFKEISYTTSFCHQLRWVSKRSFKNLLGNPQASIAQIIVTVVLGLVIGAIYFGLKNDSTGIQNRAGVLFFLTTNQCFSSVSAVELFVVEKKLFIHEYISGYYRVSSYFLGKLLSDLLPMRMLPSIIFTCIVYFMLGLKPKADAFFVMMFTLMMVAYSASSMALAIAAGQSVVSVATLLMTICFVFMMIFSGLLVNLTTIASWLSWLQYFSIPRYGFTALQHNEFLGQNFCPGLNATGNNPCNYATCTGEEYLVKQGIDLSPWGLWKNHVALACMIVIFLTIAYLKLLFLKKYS
Procedure: The methodology used was adapted from the previously validated Caco‐2 unidirectional (basolateral to apical; B‐A) BCRP inhibition assay.[13]
The BCRP inhibition experiments were performed between day 18 to 22 post‐seeding. […] After pre‐incubation, transport buffer was removed and the appropriate donor solutions were added to the basolateral donor compartment. […] Receiver solutions (final DMSO concentration of ≤1 % v/v) in transport buffer containing either the corresponding concentration of test inhibitor or DMSO (vehicle control), and the fluorescent cell monolayer integrity marker lucifer yellow (100 μM), were added to the apical compartments (total volume = 90 μL). Incubations were conducted in triplicate wells per assay condition in a heated incubator at 37°C for 90 min. Following the incubation, the amount (pmol) of [^3H]‐estrone 3‐sulfate appearing in the receiver compartment was determined by sampling (50 μL) into a white walled clear bottomed multiwell plate, to which scintillation fluid (200 μL) was added, and then samples counted on a Microbeta2 liquid scintillation counter (PerkinElmer). The quantified amount (derived from disintegrations per minute; DPM) of [^3H]‐estrone 3‐sulfate was subsequently converted to concentration (pmol/mL) and used to calculate apparent permeability (Papp), as described previously.[18]

human OATP1B1 (SLCO1B1) = biological target: T4, human OATP1B1 (SLCO1B1) (Homo sapiens, UniProt Q9Y6L6); assay: OATP1B1 inhibition in transporter-expressing HEK293 cells, [3H]-estradiol 17β-D-glucuronide uptake (IC50 determination); conditions: OATP1B1-mediated transport of [3H]-estradiol 17β-D-glucuronide (0.02 μM), HEK293
T4 sequence (Q9Y6L6 1-691): T2 sequence (Q9Y6L6 1-691)
Procedure: as §1

human NTCP (SLC10A1) = biological target: T5, human NTCP (SLC10A1) (Homo sapiens, UniProt Q14973); assay: NTCP single concentration inhibition screen in HEK293 cells; assay type: cell-based; conditions: ≥10x [Iin max u]: atazanavir 50 μM, darunavir 15 μM, lopinavir 5 μM, ritonavir 0.3 μM; [3H]-taurocholic acid 1 μM
T5 construct: host or cells: HEK293 TransportoCells
T5 sequence (Q14973 1-349): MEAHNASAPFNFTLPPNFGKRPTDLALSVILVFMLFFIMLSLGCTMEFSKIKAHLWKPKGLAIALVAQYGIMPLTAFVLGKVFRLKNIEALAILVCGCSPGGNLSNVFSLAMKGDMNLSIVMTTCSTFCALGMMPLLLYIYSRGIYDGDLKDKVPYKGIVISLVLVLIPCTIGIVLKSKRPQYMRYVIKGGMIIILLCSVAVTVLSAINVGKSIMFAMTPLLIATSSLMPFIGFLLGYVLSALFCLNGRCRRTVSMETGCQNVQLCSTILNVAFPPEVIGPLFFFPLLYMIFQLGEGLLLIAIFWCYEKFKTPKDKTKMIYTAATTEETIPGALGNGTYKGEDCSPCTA

[5] = human, in vivo
[6] = read-out: [Cmax] mean steady-state maximum plasma concentration, total drug, cited from earlier work
OAT3 [7] = tested on: OAT3; parameters: method as in Yoshida et al.[32]; conditions: up to 10 μM; ref Yoshida et al.[32]; cited from earlier work
[8] = Pharmacokinetic parameters of protease inhibitors in clinical interaction studies with rosuvastatin; conditions: calculated, clinical dose of Table 5
human OAT3 (SLC22A8) = biological target: T6, human OAT3 (SLC22A8) (Homo sapiens, UniProt Q8TCC7); assay: OAT3 single concentration inhibition screen in HEK293 cells; assay type: cell-based; conditions: ≥10x unbound [Cmax]: atazanavir 15 μM, darunavir 10 μM, lopinavir 3 μM, ritonavir 0.1 μM; probe 1 μM
T6 construct: host or cells: HEK293 TransportoCells
T6 sequence (Q8TCC7 1-542): T1 sequence (Q8TCC7 1-542)

CC(C)c1nc(N(C)S(C)(=O)=O)nc(-c2ccc(F)cc2)c1/C=C/[C@@H](O)C[C@@H](O)CC(=O)O [rosuvastatin]
OAT3 ƒe ([1]; active renal secretion, ref [1]): 0.25 | OATP1B1 ƒe ([1]; hepatic uptake, ref [1]): 0.38 | fraction absorbed ([1]; intestinal BCRP efflux as barrier to absorption, ref [1]): 0.5 | BCRP ƒe ([1]; intestinal BCRP efflux, ref [1]): 0.5 | NTCP ƒe ([1]; ref [13]): 0.21 | OATP1B3 ƒe ([1]; ref [13]): 0.11 | overall hepatic elimination ƒe ([1]; ref [13]): 0.7

CCCN(CCC)S(=O)(=O)c1ccc(C(=O)O)cc1 [probenecid]
inhibition at 3 min, 300 μM (OAT3 [2]): 90.6%

CO[C@H]1/C=C/O[C@@]2(C)Oc3c(C)c(O)c4c(O)c(cc(O)c4c3C2=O)NC(=O)/C(C)=C\C=C\[C@H](C)[C@H](O)[C@@H](C)[C@@H](O)[C@@H](C)[C@H](OC(C)=O)[C@@H]1C [rifamycin SV, rifamycin SV sodium salt]
inhibition at 2 min, 100 μM (OATP1B1): 96.5 ± 3.2%

C[C@]12CC[C@@H]3c4ccc(OS(=O)(=O)O)cc4CC[C@H]3[C@@H]1CCC2=O [estrone 3‐sulfate, Estrone 3‐sulfate sodium salt]
Km (BCRP [3]): 7.4 µM

CC(C)CN(C[C@@H](O)[C@H](Cc1ccccc1)NC(=O)O[C@H]1CO[C@H]2OCC[C@H]21)S(=O)(=O)c1ccc(N)cc1 [darunavir]
IC50 (BCRP [4]): 126 µM and 154 µM and 148 µM | IC50 (BCRP [4]; IC50 mean (BCRP), BCRP-mediated B-A transport of [3H]-estrone 3-sulfate (1 μM), Caco-2, mean (±SD) of occasions, IC50 equates to Ki): 143 µM | IC50 (human OATP1B1 (SLCO1B1); IC50, determined values from different occasions (OATP1B1), single occasion): 12.4 µM and 7.89 µM and 8.29 µM | IC50 (human OATP1B1 (SLCO1B1); IC50 mean (OATP1B1), mean (±SD) of three occasions): 9.53 µM | Inhibition of NTCP-mediated probe substrate transport, single concentration screen (human NTCP (SLC10A1)): neither darunavir nor ritonavir when tested at a single concentration greater than or equal to ten times their [Iin max u] produced inhibition; also recorded: not an inhibitor | [Ig] maximal enterocyte concentration [5]: 73.0 ^b μM | [Iin max] maximum hepatic inlet concentration [5]: 24.2 ^b μM | Cmax ([6]; 600 mg, ref Kakuda et al.[36]): 10.6 µM | Inhibition of OAT3, published (OAT3 [7]): no inhibition | [Iin max u] unbound maximum hepatic inlet concentration [8]: 1.21 µM

CC(C)c1nc(CN(C)C(=O)N[C@H](C(=O)N[C@@H](Cc2ccccc2)C[C@H](O)[C@H](Cc2ccccc2)NC(=O)OCc2cncs2)C(C)C)cs1 [ritonavir]
Inhibition of OAT3-mediated [3H]-estrone 3-sulfate transport, single concentration screen (human OAT3 (SLC22A8)): neither atazanavir, darunavir, lopinavir nor ritonavir inhibited OAT3 transport | Cmax ([6]; clinical dose of Table 5, ref Elsby et al.[1]): 0.93 µM | [Ig] maximal enterocyte concentration ([8]; (FaFg × ka × dose)/Qent): 1.39 ^f μM | [Iin max u] unbound maximum hepatic inlet concentration [8]: 0.0131 µM | [Iin max] maximum hepatic inlet concentration [8]: 1.19 ^f μM
